Laboratory results published in ChEMBL document CHEMBL3734758, “Protective effects of 5,7,4'-trihydroxy-6,3'dimethoxy-flavone 5-O-α-l-rhamnopyranoside, isolated from Annona squamosa leaves in thyrotoxicosis and in hepatic lipid peroxidation in rats” (Bioorg Med Chem Lett, 2015).
Active and inactive are the calls of the source. The rule behind the calls is not given here.

Tests used:
[1] = system: Rattus norvegicus; assay: Inhibition of L-T4-induced decrease in total cholesterol level in albino Wistar rat at 5 mg/kg/day, po cotreated with 0.5 mg/kg L-T4 for 15 days (reference value: 58.77 +/- 3.95 mg/dl); format: functional
[2] = system: Rattus norvegicus; assay: Inhibition of L-T4-induced increase in Glucose-6-phosphate activity in albino Wistar rat at 5 mg/kg/day, po cotreated with 0.5 mg/kg L-T4 for 15 days […]; format: functional, organism-based
[3] = system: Rattus norvegicus; assay: Inhibition of L-T4-induced decrease in triglyceride level in albino Wistar rat at 5 mg/kg/day, po cotreated with 0.5 mg/kg L-T4 for 15 days (reference value: 42.15 +/- 3.23 mg/dl); format: functional
[4] = system: Rattus norvegicus; assay: Toxicity in albino Wistar rat assessed as triglyceride level at 5 mg/kg/day, po for 15 days (reference value: 73.33 +/- 3.1 mg/dl); format: organism-based; conditions: in vivo, 360 h
[5] = system: Rattus norvegicus; assay: Inhibition of L-T4-induced increase in T4 level in albino Wistar rat at 5 mg/kg/day, po cotreated with 0.5 mg/kg L-T4 for 15 days by RIA (reference value: 112.86 +/- 4.77 ng/ml); format: functional
[6] = system: Rattus norvegicus; assay: Inhibition of L-T4-induced increase in lipid peroxidation in albino Wistar rat assessed as malondialdehyde formed per mg of protein at 10 mg/kg/day, po cotreated with 0.5 mg/kg L-T4 for 15 days (reference value: 0.977 +/- 0.035 nM/hr); format: functional
[7] = system: Rattus norvegicus; assay: Inhibition of L-T4-induced increase in T3 level in albino Wistar rat at 2.5 mg/kg/day, po cotreated with 0.5 mg/kg L-T4 for 15 days by RIA (reference value: 1.55 +/- 0.131 ng/ml); format: functional
[8] = system: Rattus norvegicus; assay: Toxicity in albino Wistar rat assessed as low-density lipoprotein cholesterol level at 5 mg/kg/day, po for 15 days (reference value: 83.85 +/- 2.96 mg/dl); format: organism-based; conditions: in vivo, 360 h
[9] = system: Rattus norvegicus; assay: Toxicity in albino Wistar rat assessed as high-density lipoprotein cholesterol level at 5 mg/kg/day, po for 15 days (reference value: 45.52 +/- 3.08 mg/dl); format: organism-based; conditions: in vivo, 360 h
[10] = system: Rattus norvegicus; assay: Toxicity in albino Wistar rat assessed as total cholesterol level at 5 mg/kg/day, po for 15 days (reference value: 114.97 +/- 4.76 mg/dl); format: organism-based; conditions: in vivo, 360 h
[11] = system: Rattus norvegicus; assay: Inhibition of L-T4-induced increase in T4 level in albino Wistar rat at 10 mg/kg/day, po cotreated with 0.5 mg/kg L-T4 for 15 days by RIA (reference value: 112.86 +/- 4.77 ng/ml); format: functional
[12] = system: Rattus norvegicus; assay: Inhibition of L-T4-induced loss of body weight in albino Wistar rat assessed as increase in body weight at 5 mg/kg/day, po cotreated with 0.5 mg/kg L-T4 for 15 days […]; format: functional, organism-based
[13] = system: Rattus norvegicus; assay: Inhibition of L-T4-induced increase in T3 level in albino Wistar rat at 10 mg/kg/day, po cotreated with 0.5 mg/kg L-T4 for 15 days by RIA (reference value: 1.55 +/- 0.131 ng/ml); format: functional
[14] = system: Rattus norvegicus; assay: Inhibition of L-T4-induced decrease in very low-density lipoprotein cholesterol in albino Wistar rat at 5 mg/kg/day, po cotreated with 0.5 mg/kg L-T4 for 15 days (reference value: 8.65 +/- 2.76 mg/dl); format: functional
[15] = system: Rattus norvegicus; assay: Inhibition of L-T4-induced increase in lipid peroxidation in albino Wistar rat assessed as malondialdehyde formed per mg of protein at 5 mg/kg/day, po cotreated with 0.5 mg/kg L-T4 for 15 days (reference value: 0.977 +/- 0.035 nM/hr); format: functional
[16] = system: Rattus norvegicus; assay: Inhibition of L-T4-induced decrease in catalase activity in albino Wistar rat liver assessed as H2O2 decomposition at 5 mg/kg/day, po cotreated with 0.5 mg/kg L-T4 for 15 days by spectrophotmetry; format: functional, organism-based
[17] = system: Rattus norvegicus; assay: Inhibition of L-T4-induced increase in lipid peroxidation in albino Wistar rat assessed as malondialdehyde formed per mg of protein at 2.5 mg/kg/day, po cotreated with 0.5 mg/kg L-T4 for 15 days (reference value: 0.977 +/- 0.035 nM/hr); format: functional
[18] = system: Rattus norvegicus; assay: Inhibition of L-T4-induced decrease in low-density lipoprotein cholesterol in albino Wistar rat at 5 mg/kg/day, po cotreated with 0.5 mg/kg L-T4 for 15 days (reference value: 31.68 +/- 4.25 mg/dl); format: functional
[19] = system: Rattus norvegicus; assay: Inhibition of L-T4-induced decrease in GSH level in albino Wistar rat liver at 5 mg/kg/day, po cotreated with 0.5 mg/kg L-T4 for 15 days; format: functional, organism-based
[20] = system: Rattus norvegicus; assay: Inhibition of L-T4-induced increase in T3 level in albino Wistar rat at 5 mg/kg/day, po cotreated with 0.5 mg/kg/day L-T4 for 15 days by RIA (reference value: 1.55 +/- 0.131 ng/ml); format: functional
[21] = system: Rattus norvegicus; assay: Inhibition of L-T4-induced decrease in high-density lipoprotein cholesterol in albino Wistar rat at 5 mg/kg/day, po cotreated with 0.5 mg/kg L-T4 for 15 days (reference value: 20.18 +/- 2.32 mg/dl); format: functional
[22] = system: Rattus norvegicus; assay: Toxicity in albino Wistar rat assessed as very low-density lipoprotein cholesterol level at 5 mg/kg/day, po for 15 days (reference value: 14.85 +/- 2.43 mg/dl); format: organism-based; conditions: in vivo, 360 h
[23] = system: Rattus norvegicus; assay: Inhibition of L-T4-induced increase in T4 level in albino Wistar rat at 2.5 mg/kg/day, po cotreated with 0.5 mg/kg L-T4 for 15 days by RIA (reference value: 112.86 +/- 4.77 ng/ml); format: functional
[24] = system: Rattus norvegicus; assay: Inhibition of L-T4-induced increase in hepatic 5-monodeiodinase-l activity in albino Wistar rat assessed as T3 formation at 5 mg/kg/day, po cotreated with 0.5 mg/kg L-T4 for 15 days by RIA; format: functional, organism-based
[25] = system: Rattus norvegicus; assay: Inhibition of L-T4-induced decrease in SOD activity in albino Wistar rat liver at 5 mg/kg/day, po cotreated with 0.5 mg/kg L-T4 for 15 days; format: functional, organism-based

Compound: COc1cc(-c2cc(=O)c3c(O[C@@H]4O[C@@H](C)[C@H](O)[C@@H](O)[C@H]4O)c(OC)c(O)cc3o2)ccc1O
- Activity [1]: 98.14 mg/dL
- inhibition [2]: Active
- Activity [3]: 68.31 mg/dL
- Activity [4]: 61.1 mg/dL
- Activity [5]: 56.7 ng/mL
- Activity [6]: 0.512 nM/h
- Activity [7]: 1.01 ng/mL
- Activity [8]: 60.16 mg/dL
- Activity [9]: 48.97 mg/dL
- Activity [10]: 96.22 mg/dL
- Activity [11]: 102.45 ng/mL
- Activity [12]: Active
- Activity [13]: 1.39 ng/mL
- Activity [14]: 14.09 mg/dL
- Activity [15]: 0.239 nM/h
- inhibition [16]: Active
- Activity [17]: 0.619 nM/h
- Activity [18]: 72.42 mg/dL
- inhibition [19]: Active
- Activity [20]: 0.43 ng/mL
- Activity [21]: 40.95 mg/dL
- Activity [22]: 12.91 mg/dL
- Activity [23]: 98.6 ng/mL
- inhibition [24]: Active
- inhibition [25]: Active
